Test results as given in patent US20210255193A1, “LYSINE REACTIVE PROBES AND USES THEREOF” (The Scripps Research Institute, priority 2017, published 2021).

Experiments:
Assay in all cases: direct labeling of recombinantly expressed proteins by gel-based ABPP (WT vs lysine mutant)
Assay type in all cases: binding
CARM1 = target: T1, CARM1 (Mus musculus, UniProt Q9WVG6); conditions: CARM1 K241, KR mutant; 10 μM probe, 1 h
T1 construct: FLAG; expressed in transfected cells; host or cells: HEK 293T
T1 sequence (Q9WVG6 1-608): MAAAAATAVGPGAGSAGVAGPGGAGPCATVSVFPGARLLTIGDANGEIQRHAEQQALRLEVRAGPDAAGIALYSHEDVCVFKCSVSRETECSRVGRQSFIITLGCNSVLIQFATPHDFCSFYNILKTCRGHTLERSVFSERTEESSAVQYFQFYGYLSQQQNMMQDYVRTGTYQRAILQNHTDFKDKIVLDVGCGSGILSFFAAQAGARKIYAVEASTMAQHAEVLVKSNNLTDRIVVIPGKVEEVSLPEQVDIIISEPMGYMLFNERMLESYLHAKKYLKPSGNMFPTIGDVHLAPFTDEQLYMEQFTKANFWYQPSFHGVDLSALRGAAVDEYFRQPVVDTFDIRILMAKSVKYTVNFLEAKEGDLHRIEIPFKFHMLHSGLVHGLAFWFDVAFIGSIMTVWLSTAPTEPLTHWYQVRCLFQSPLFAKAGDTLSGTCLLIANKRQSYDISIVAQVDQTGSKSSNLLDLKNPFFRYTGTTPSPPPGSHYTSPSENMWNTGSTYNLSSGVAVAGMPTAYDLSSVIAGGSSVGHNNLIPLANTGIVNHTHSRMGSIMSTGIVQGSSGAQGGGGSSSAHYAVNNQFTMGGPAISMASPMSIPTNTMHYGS
Description: (§1) Subcloning and mutagenesis. Unless noted below, genes were amplified from cDNA prepared from low passage HEK 293T cells using the Ribozol RNA extraction reagent (Amresco) and the iScript Reverse Transcription Supermix kit (Bio-Rad). For the following proteins cDNA clones were used for amplification instead: PFKP (5180268, Dharmacon), HK1 (BC008730, transomic), SIN3A (BC137098, transomic), G6PD (BC000337, transomic) and TGIF1 (BC031268, transomic). Mouse CARM1 in pFLAG-CMV-6c was a kind gift from the Mowen lab (TSRI). NUDT2 was obtained as synthesized gene (IDT). DNA was amplified with custom forward and reverse primers using phusion polymerase (NEB, M0530S), digested with the indicated restriction enzyme and ligated into pFLAG-CMV-6c or pRK5 with the appropriate affinity tag. Lysine mutants were generated using QuikChange site-directed mutagenesis using Phusion® High-Fidelity DNA Polymerase and primers containing the desired mutations and their respective complements. The cloning of TTR and its K35A mutant has been described in Choi et al., “Chemoselective small molecules that covalently modify one lysine in a non-enzyme protein in plasma,” Nat. Chem. Biol. 6, 133-139 (2010). TTR was expressed in E. coli and purified as described. For gel-based experiments 1 μM TTR was added into 1 mg ml^−1 soluble MDA-MB-231 lysate.
(§2) Recombinant expression of proteins by transient transfection. HEK 293T cells were grown to 50% confluency in 10 ml DMEM supplemented with 10% fetal bovine serum (FBS), penicillin, streptomycin and glutamine in 10 cm tissue culture dishes. 3 μg of DNA was diluted in 500 μL DMEM and 30 μL of PEI (MW 40,000, 1 mg ml^−1, Polysciences) were added. The mixture was incubated at room temperature for 30 min and added dropwise to the cells. Cells were grown for 48 h at 37° C. with 5% CO2. Cells were washed with cold PBS, scraped with cold PBS and cell pellets were isolated by centrifugation (1,400 g, 3 min, 4° C.), and stored at −80° C. until use. Cell pellets were resuspended in PBS, lysed by sonication and fractionated (100,000 g, 45 min) to yield soluble and membrane fractions. The soluble fraction was adjusted to a final protein concentration of 1 mg ml^−1 for gel-based ABPP experiments.
(§3) Direct labeling of recombinantly expressed proteins by gel-based ABPP. 50 μL of soluble HEK 293T proteome (1 mg ml^−1) expressing the respective protein (WT or KR mutant) or transfected with an empty vector were treated with 10 μM of the indicated probe for 1 h at room temperature. The samples were analyzed as described in the previous section. For quantification of relative labeling of the different protein variants, the intensity of labeling was determined by quantifying the integrated optical intensity of the bands using ImageLab 5.2.1 software (BioRad).

FAH = target: T2, FAH (Homo sapiens, UniProt P16930); conditions: FAH K241, KR mutant; 10 μM probe, 1 h
T2 construct: expressed in transfected cells; host or cells: HEK 293T
T2 sequence (P16930 1-419): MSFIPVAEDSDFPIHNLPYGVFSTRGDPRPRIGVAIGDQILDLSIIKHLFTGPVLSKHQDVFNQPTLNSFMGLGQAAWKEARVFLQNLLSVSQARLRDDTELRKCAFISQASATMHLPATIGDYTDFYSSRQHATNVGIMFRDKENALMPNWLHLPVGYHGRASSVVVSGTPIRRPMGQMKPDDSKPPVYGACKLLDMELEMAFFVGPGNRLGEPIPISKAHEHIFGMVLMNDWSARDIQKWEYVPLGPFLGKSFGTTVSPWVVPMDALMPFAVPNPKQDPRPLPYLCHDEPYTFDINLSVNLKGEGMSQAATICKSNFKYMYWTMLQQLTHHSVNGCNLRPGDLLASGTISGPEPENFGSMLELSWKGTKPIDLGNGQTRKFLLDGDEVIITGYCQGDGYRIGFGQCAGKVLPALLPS
Description: as §1, §2, §3

G6PD = target: T3, G6PD (Homo sapiens, UniProt P11413); conditions: G6PD K171, KR mutant; 10 μM probe, 1 h
T3 construct: expressed in transfected cells; host or cells: HEK 293T
Description: as §1, §2, §3

GSTO1 = target: T4, GSTO1 (Homo sapiens, UniProt P78417); conditions: GSTO1 K57, KR mutant; 10 μM probe, 1 h
T4 construct: expressed in transfected cells; host or cells: HEK 293T
T4 sequence (P78417 1-241): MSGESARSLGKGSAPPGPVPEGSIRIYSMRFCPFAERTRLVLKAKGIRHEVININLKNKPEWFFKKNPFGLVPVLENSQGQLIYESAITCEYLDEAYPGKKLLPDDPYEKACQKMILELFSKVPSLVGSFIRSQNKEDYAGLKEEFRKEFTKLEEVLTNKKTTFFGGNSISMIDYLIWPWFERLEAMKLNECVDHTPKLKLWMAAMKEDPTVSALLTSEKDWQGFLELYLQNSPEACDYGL
Description: as §1, §2, §3

TTR = target: T5, TTR (Homo sapiens, UniProt P02766); conditions: TTR K35, KA mutant; 1 μM TTR in MDA-MB-231 lysate
T5 construct: made in house; host or cells: E. coli
Description: as §1, §3

T3 sequence (P11413 whole entry): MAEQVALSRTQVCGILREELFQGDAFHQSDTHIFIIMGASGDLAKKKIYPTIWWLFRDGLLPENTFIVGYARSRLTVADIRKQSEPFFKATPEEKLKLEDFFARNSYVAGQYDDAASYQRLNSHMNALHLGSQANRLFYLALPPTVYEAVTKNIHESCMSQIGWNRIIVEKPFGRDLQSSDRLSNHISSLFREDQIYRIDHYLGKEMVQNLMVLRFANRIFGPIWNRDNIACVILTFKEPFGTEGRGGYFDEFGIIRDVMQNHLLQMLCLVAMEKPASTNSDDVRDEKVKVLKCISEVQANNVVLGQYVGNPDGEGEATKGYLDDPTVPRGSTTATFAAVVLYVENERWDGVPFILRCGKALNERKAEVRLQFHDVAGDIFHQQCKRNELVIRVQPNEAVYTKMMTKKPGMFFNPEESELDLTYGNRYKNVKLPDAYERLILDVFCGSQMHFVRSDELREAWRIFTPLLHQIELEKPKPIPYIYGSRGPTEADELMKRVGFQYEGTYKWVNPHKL

| SMILES | labeling of WT vs mutant protein by probe (CARM1) | labeling of WT vs mutant protein by probe (FAH) | labeling of WT vs mutant protein by probe (G6PD) | labeling of WT vs mutant protein by probe (GSTO1) | labeling of WT vs mutant protein by probe (TTR) |
| --- | --- | --- | --- | --- | --- |
| C#CCCC(=O)Oc1c(F)c(F)c(S(=O)(=O)[O-])c(F)c1F.[Na+] [probe 1, reference compound] | HD (the WT labeled more than the mutant (>4x difference quantified)) | ND (the WT did not label more than the mutant (<2x difference quantified)) | ND (the WT did not label more than the mutant (<2x difference quantified)) | PD (the WT labeled more than the mutant (>2x difference quantified)) | HD (the WT labeled more than the mutant (>4x difference quantified)) |
| C#Cc1ccc(C(=O)Oc2c(F)c(F)cc(F)c2F)cc1 [probe 12, 2,3,5,6-Tetrafluorophenyl 4-ethynylbenzoate] | ND (the WT did not label more than the mutant (<2x difference quantified)) | PD (the WT labeled more than the mutant (>2x difference quantified)) | ND (the WT did not label more than the mutant (<2x difference quantified)) | ND (the WT did not label more than the mutant (<2x difference quantified)) | HD (the WT labeled more than the mutant (>4x difference quantified)) |
| C#Cc1ccc(C(=O)Oc2ccccc2[N+](=O)[O-])cc1 [probe 10, 2-Nitrophenyl 4-ethynylbenzoate] | – | – | – | – | HD (the WT labeled more than the mutant (>4x difference quantified)) |
| Cc1cc(C)n2c1C=C1C=CC(CCC(=O)Oc3c(F)c(F)c(S(=O)(=O)[O-])c(F)c3F)=[N+]1[B-]2(F)F.[Na+] [probe 18, reference compound] | PD (the WT labeled more than the mutant (>2x difference quantified)) | PD (the WT labeled more than the mutant (>2x difference quantified)) | NL (labelling of the WT protein was not detected by gel (intensity for WT less than 2x background)) | ND (the WT did not label more than the mutant (<2x difference quantified)) | HD (the WT labeled more than the mutant (>4x difference quantified)) |
| C#CCCC(=O)Oc1c(F)c(F)c(F)c(F)c1F [probe 6, Pentafluorophenyl 4-pentynoate] | ND (the WT did not label more than the mutant (<2x difference quantified)) | – | ND (the WT did not label more than the mutant (<2x difference quantified)) | ND (the WT did not label more than the mutant (<2x difference quantified)) | HD (the WT labeled more than the mutant (>4x difference quantified)) |
| C#Cc1ccc(C(=O)Oc2c(F)c(F)c(F)c(F)c2F)cc1 [probe 13, Pentafluorophenyl 4-ethynylbenzoate] | ND (the WT did not label more than the mutant (<2x difference quantified)) | – | ND (the WT did not label more than the mutant (<2x difference quantified)) | ND (the WT did not label more than the mutant (<2x difference quantified)) | HD (the WT labeled more than the mutant (>4x difference quantified)) |
